Source: US4072574A, “System for in vitro assay for mutagenicity and/or carcinogenicity of chemicals or other exogenous agents” (priority 1976, dated 1978)

What was measured:
AMV DNA polymerase [1] = assay: Metal requirements for catalysis by AMV DNA polymerase; type: biochemical, avian myeloblastosis virus; details: poly (A).oligo (dT); for ability to substitute for Mg^2+ as added divalent cation: absence of Mg^2+, Be^2+ up to 15 mM
Experimental: All known DNA polymerases require either Mg^2+ or Mn^2+ as an added divalent cation for activity. AMV DNA polymerase used Mg^2+ as an added divalent cation and the maximum rate of polymerization with poly (A).oligo (dT) was attained at 5 mM Mg^2+. […] Thymidine monophosphate incorporation with Be^2+ was less than 0.3% of that obtained with 5 mM Mg^2+.

[2] = known status of the compound; cited from earlier work
AMV DNA polymerase [3] = assay: Fidelity of in vitro DNA synthesis (error frequency) with AMV DNA polymerase copying synthetic polynucleotide templates; details: for Complementary Nucleotide (pmoles dTMP) / Non-Complementary Nucleotide (pmoles dCMP) / Error Frequency / effect on error frequency (in words): poly (A).oligo (dT); for Error Frequency: dCMP/dTMP; for Class: Table 1, classes 1-3 not defined; for effect on error frequency (in words): dTMP complementary, dCMP non-complementary
Excerpt: (§1) In this invention, the ability of carcinogens to decrease the fidelity of in vitro DNA synthesis will be used to screen for carcinogenic or mutagenic agents. The system uses synthetic polynucleotides of defined composition which may be copied in the test tubes with procaryotic, eucaryotic or viral DNA polymerases. The use of synthetic polynucleotides of defined composition allows the measurement of the simultaneous incorporation of the correct, complementary nucleotide and an incorrect, non-complementary nucleotide. The correct nucleotide is labeled with [α-^32 P] of low specific activity and the incorrect nucleotide is labeled with [^3 H] of high specific activity. Through this double labeled reaction it is possible to determine the simultaneous incorporation of both nucleotides and thus to determine an error frequency. The error frequency may be defined as the ratio of the incorrect/correct nucleotide incorporation. Agents which increase this error frequency may be scored as positive. […] Agents which score positive would be checked using different templates to underscore the positive results. In this system different polymerases will be used as well as different templates. One would expect that most carcinogens would change the fidelity of DNA synthesis with different polymerases as well as with different templates though this need not be the case.
(§2) Each assay will consist of a polymerase, a polynucleotide template that only contains one or two nucleotides, a complementary nucleotide and a non-complementary nucleotide as well as magnesium. Both of the nucleotides will be labeled by radioactive precursors and the ratio between the two is to be used for a measure of error frequency in the system. In instances where a template requires two complementary nucleotides, only one will be radioactively labeled.
(§3) Reactions (total volume 0.05 ml) which measured complementary nucleotide incorporation contained 50 mM Tris-HCL (pH 8.0), 20 mM KCl, 5 mM dithiothreitol, 5 mM MgCl2, 2μg BSA, […] [α-^32 P] -dTTP (60 dpm/pmole), 1μg poly (A).oligo (dT) (1:1.5 mass ratio), and 0.45 μg of AMV DNA polymerase. For simultaneous quantitation of complementary and non-complementary nucleotide incorporation each reaction was modified to contain 26μM [α-^32 P]dTTP (12 dpm/pmole) and 23μM [^3 H]-dCTP (50,000 dpm/pmole). […] Metals were added directly to the reaction mixture as aqueous solutions of chloride salts. All reactions were incubated for 60 min. at 37° C. Incorporation of radioactive nucleotides into an acid-insoluble and alkali-resistant product was determined by using the precipitation-solubilization procedure as described by Battula and Loeb. All experiments were performed in triplicate and the averages were determined.
(§4) In order to determine the effect of different metals on the accuracy of DNA replication, metal cations were added as chloride salts directly to the polymerase reaction. In these experiments, poly (A).oligo (dT) was the template-primer and the simultaneous incorporation of complementary nucleotide, [α-^32 P]-dTMP, and the non-complementery nucleotide, [^3 H]-dCMP, was determined.
(§5) The effect of metal salts on the fidelity of DNA synthesis was examined by testing each of the metal salts at a minimum of seven different concentrations.

[4] = as above; details: amv dna polymerase
Excerpt: as §1, §2, §3, §4, §5

[5] = 10 mM added cation + Mg^2+ 5 mM

[Ca+2].[Cl-].[Cl-] [CaCl2]
ability to substitute for Mg^2+ as added divalent cation (AMV DNA polymerase [1]): unable to substitute for Mg^2+ | Carcinogen or Mutagen [2]: - | Complementary Nucleotide (pmoles dTMP) (AMV DNA polymerase [3]; 1 mM added cation + Mg^2+ 5 mM): 704 pmol | Non-Complementary Nucleotide (pmoles dCMP) (AMV DNA polymerase [3]; 1 mM added cation + Mg^2+ 5 mM): 0.70 pmol | Error Frequency (AMV DNA polymerase [3]; 1 mM added cation + Mg^2+ 5 mM): 1/1005 | Complementary Nucleotide (pmoles dTMP) (AMV DNA polymerase [3]; 2 mM added cation + Mg^2+ 5 mM): 129 pmol | Non-Complementary Nucleotide (pmoles dCMP) (AMV DNA polymerase [3]; 2 mM added cation + Mg^2+ 5 mM): 0.19 pmol | Error Frequency (AMV DNA polymerase [3]; 2 mM added cation + Mg^2+ 5 mM): 1/681 | Complementary Nucleotide (pmoles dTMP) (AMV DNA polymerase [3]; 5 mM added cation + Mg^2+ 5 mM): 55 pmol | Non-Complementary Nucleotide (pmoles dCMP) (AMV DNA polymerase [3]; 5 mM added cation + Mg^2+ 5 mM): 0.083 pmol | Error Frequency (AMV DNA polymerase [3]; 5 mM added cation + Mg^2+ 5 mM): 1/665 | Class (AMV DNA polymerase [3]; template poly (A).oligo (dT)): 2 | effect on error frequency (in words) (AMV DNA polymerase [3]): did not alter the error frequency | Metal Concentration which yielded the largest observed change in error rate (AMV DNA polymerase [3]; template poly (A).oligo (dT)): 5 mM

CC(=O)O [Ba(C2 H3 O2)2]
Class (AMV DNA polymerase [3]; template poly [d(A-T)]): 2 | Metal Concentration which yielded the largest observed change in error rate (AMV DNA polymerase [3]; template poly [d(A-T)]): 10 mM | fold induction at 1 h ([4]; poly [d(a-t)]): 0.94

[Cl-].[Cl-].[Mg+2] [Mg^2+, magnesium chloride]
Mg^2+ concentration at which the maximum rate of polymerization was attained (AMV DNA polymerase [1]): 5 mM | Complementary Nucleotide (pmoles dTMP) (AMV DNA polymerase [3]; Mg^2+ 2 mM alone): 320 pmol | Non-Complementary Nucleotide (pmoles dCMP) (AMV DNA polymerase [3]; Mg^2+ 2 mM alone): 0.56 pmol | Error Frequency (AMV DNA polymerase [3]; Mg^2+ 2 mM alone): 1/571 | Complementary Nucleotide (pmoles dTMP) (AMV DNA polymerase [3]; Mg^2+ 5 mM alone): 600 pmol | Non-Complementary Nucleotide (pmoles dCMP) (AMV DNA polymerase [3]; Mg^2+ 5 mM alone): 1.16 pmol | Error Frequency (AMV DNA polymerase [3]; Mg^2+ 5 mM alone): 1/517 | Complementary Nucleotide (pmoles dTMP) (AMV DNA polymerase [3]; Mg^2+ 8 mM alone): 520 pmol | Non-Complementary Nucleotide (pmoles dCMP) (AMV DNA polymerase [3]; Mg^2+ 8 mM alone): 1.00 pmol | Error Frequency (AMV DNA polymerase [3]; Mg^2+ 8 mM alone): 1/520 | Complementary Nucleotide (pmoles dTMP) (AMV DNA polymerase [3]; Mg^2+ 15 mM alone): 240 pmol | Non-Complementary Nucleotide (pmoles dCMP) (AMV DNA polymerase [3]; Mg^2+ 15 mM alone): 0.90 pmol | Error Frequency (AMV DNA polymerase [3]; Mg^2+ 15 mM alone): 1/600 | effect on error frequency (in words) (AMV DNA polymerase [3]): invariant with respect to Mg^2+ concentration

O=CO [NH4 COOH]
Class (AMV DNA polymerase [3]; template poly [d(A-T)]): 2 | Metal Concentration which yielded the largest observed change in error rate (AMV DNA polymerase [3]; template poly [d(A-T)]): 100 mM | fold induction at 1 h ([4]; poly [d(a-t)]): 0.83

CC(=O)O [NaC2 H3 O2]
Carcinogen or Mutagen [2]: - | Class (AMV DNA polymerase [3]; template poly (C).oligo (dG)): 2 | Metal Concentration which yielded the largest observed change in error rate (AMV DNA polymerase [3]; template poly (C).oligo (dG)): 100 mM | fold induction at 1 h ([4]; poly(c).oligo(dg)): 1

O=C(O)O [NaHCO3]
Carcinogen or Mutagen [2]: - | Class (AMV DNA polymerase [3]; template poly [d(A-T)]): 2 | Metal Concentration which yielded the largest observed change in error rate (AMV DNA polymerase [3]; template poly [d(A-T)]): 40 mM | fold induction at 1 h ([4]; poly [d(a-t)]): 0.96

[Cl-].[Cl-].[Sr+2] [SrCl2]
Carcinogen or Mutagen [2]: - | Complementary Nucleotide (pmoles dTMP) (AMV DNA polymerase [3]; 4 mM added cation + Mg^2+ 5 mM): 798 pmol | Non-Complementary Nucleotide (pmoles dCMP) (AMV DNA polymerase [3]; 4 mM added cation + Mg^2+ 5 mM): 0.86 pmol | Error Frequency (AMV DNA polymerase [3]; 4 mM added cation + Mg^2+ 5 mM): 1/927 | Complementary Nucleotide (pmoles dTMP) (AMV DNA polymerase [3]; 6 mM added cation + Mg^2+ 5 mM): 936 pmol | Non-Complementary Nucleotide (pmoles dCMP) (AMV DNA polymerase [3]; 6 mM added cation + Mg^2+ 5 mM): 0.96 pmol | Error Frequency (AMV DNA polymerase [3]; 6 mM added cation + Mg^2+ 5 mM): 1/975 | Complementary Nucleotide (pmoles dTMP) (AMV DNA polymerase [3]; [5]): 845 pmol | Non-Complementary Nucleotide (pmoles dCMP) (AMV DNA polymerase [3]; [5]): 0.86 pmol | Error Frequency (AMV DNA polymerase [3]; [5]): 1/982 | Class (AMV DNA polymerase [3]; template poly (A).oligo (dT)): 3 | effect on error frequency (in words) (AMV DNA polymerase [3]): did not affect either the incorporation of the complementary or non-complementary nucleotides | Metal Concentration which yielded the largest observed change in error rate (AMV DNA polymerase [3]; template poly (A).oligo (dT)): 10 mM

CC(=O)[O-].CC(=O)[O-].[Cu+2] [Cu(C2 H3 O2)2]
Carcinogen or Mutagen [2]: ± | Class (AMV DNA polymerase [3]; template poly (C).oligo (dG)): 1 | Metal Concentration which yielded the largest observed change in error rate (AMV DNA polymerase [3]; template poly (C).oligo (dG)): 0.12 mM

O=S(=O)([O-])[O-].O=S(=O)([O-])[O-].O=S(=O)([O-])[O-].[Al+3].[Al+3] [(Al)2 (SO4)3]
Carcinogen or Mutagen [2]: - | Class (AMV DNA polymerase [3]; template poly [d(A-T)]): 2 | Metal Concentration which yielded the largest observed change in error rate (AMV DNA polymerase [3]; template poly [d(A-T)]): 10 mM

[Na+].[OH-] [NaOH]
Carcinogen or Mutagen [2]: - | Class (AMV DNA polymerase [3]; template poly [d(A-T)]): 3 | Metal Concentration which yielded the largest observed change in error rate (AMV DNA polymerase [3]; template poly [d(A-T)]): 10 mM

[Ba+2].[Cl-].[Cl-] [BaCl2]
ability to substitute for Mg^2+ as added divalent cation (AMV DNA polymerase [1]): unable to substitute for Mg^2+ | Carcinogen or Mutagen [2]: - | Complementary Nucleotide (pmoles dTMP) (AMV DNA polymerase [3]; 2 mM added cation + Mg^2+ 5 mM): 240 pmol | Non-Complementary Nucleotide (pmoles dCMP) (AMV DNA polymerase [3]; 2 mM added cation + Mg^2+ 5 mM): 0.42 pmol | Error Frequency (AMV DNA polymerase [3]; 2 mM added cation + Mg^2+ 5 mM): 1/578 | Complementary Nucleotide (pmoles dTMP) (AMV DNA polymerase [3]; 6 mM added cation + Mg^2+ 5 mM): 243 pmol | Non-Complementary Nucleotide (pmoles dCMP) (AMV DNA polymerase [3]; 6 mM added cation + Mg^2+ 5 mM): 0.46 pmol | Error Frequency (AMV DNA polymerase [3]; 6 mM added cation + Mg^2+ 5 mM): 1/528 | Complementary Nucleotide (pmoles dTMP) (AMV DNA polymerase [3]; [5]): 317 pmol | Non-Complementary Nucleotide (pmoles dCMP) (AMV DNA polymerase [3]; [5]): 0.61 pmol | Error Frequency (AMV DNA polymerase [3]; [5]): 1/520 | Class (AMV DNA polymerase [3]; template poly (A).oligo (dT)): 2 | effect on error frequency (in words) (AMV DNA polymerase [3]): did not affect either the incorporation of the complementary or non-complementary nucleotides | Metal Concentration which yielded the largest observed change in error rate (AMV DNA polymerase [3]; template poly (A).oligo (dT)): 10 mM
